From paper PMC5697638, “Identification of a Potent Phosphoinositide 3‐Kinase Pan Inhibitor Displaying a Strategic Carboxylic Acid Group and Development of Its Prodrugs” (Chemmedchem, 2017) come the findings set out here.

One experiment concerns PC3 cells. Kind of experiment: cell-cycle analysis, propidium iodide flow cytometry. It counts as cell-based. As to conditions: 10 μM, 48 h. As for the experimental part:
Cell‐cycle analysis: For DNA content determination, PC3 cells were seeded at 4×10^5 cells per 6 cm dish in triplicate in the presence of DMEM high glucose GlutaMAXTM (Gibco), 10 % fetal bovine serum (Invitrogen) supplemented with 5000 U mL^−1 penicillin–streptomycin (Gibco). The day after seeding, cells were treated for 48 h with 10 μM 64 or DMSO. Subsequently, PC3 cells were detached with 0.1 % trypsin–EDTA (Gibco), fixed in 70 % ethanol overnight at −20 °C, and stained for 40 min at […] with PI solution, containing 0.05 % Triton X‐100, 0.1 mg mL^−1 RNase, and 25 μg mL^−1 propidium iodide. Sample were analyzed for the DNA content by using a FACS‐Calibur flow cytometer (Becton Dickinson Immunocytometry Systems, San Jose, USA). The percentages of cells in the G0/G1, S, and G2 phases were calculated.

The next experiment concerns the target T1, hPI3Kγ (PIK3CG) (Homo sapiens, UniProt P48736).
T1 construct: purchased ProQinase, Germany 1163‐0000‐1
Kind of experiment: lipid kinase assay (ADP-Glo), PI3Kγ. It is filed as biochemical.

Experiment [1] addresses T2, hPI3Kβ (PIK3CB wt/PIK3R1) (Homo sapiens, UniProt P42338).
T2 construct: purchased ProQinase, Germany 1168‐1165‐1
Kind of experiment: lipid kinase assay (ADP-Glo), PI3Kβ. It is filed as biochemical.

The target of another experiment is T3, PI3Kδ (Homo sapiens, UniProt O00329).
T3 construct: purchased ProQinase, Germany 1162–1165‐1
T3 sequence (O00329 whole entry): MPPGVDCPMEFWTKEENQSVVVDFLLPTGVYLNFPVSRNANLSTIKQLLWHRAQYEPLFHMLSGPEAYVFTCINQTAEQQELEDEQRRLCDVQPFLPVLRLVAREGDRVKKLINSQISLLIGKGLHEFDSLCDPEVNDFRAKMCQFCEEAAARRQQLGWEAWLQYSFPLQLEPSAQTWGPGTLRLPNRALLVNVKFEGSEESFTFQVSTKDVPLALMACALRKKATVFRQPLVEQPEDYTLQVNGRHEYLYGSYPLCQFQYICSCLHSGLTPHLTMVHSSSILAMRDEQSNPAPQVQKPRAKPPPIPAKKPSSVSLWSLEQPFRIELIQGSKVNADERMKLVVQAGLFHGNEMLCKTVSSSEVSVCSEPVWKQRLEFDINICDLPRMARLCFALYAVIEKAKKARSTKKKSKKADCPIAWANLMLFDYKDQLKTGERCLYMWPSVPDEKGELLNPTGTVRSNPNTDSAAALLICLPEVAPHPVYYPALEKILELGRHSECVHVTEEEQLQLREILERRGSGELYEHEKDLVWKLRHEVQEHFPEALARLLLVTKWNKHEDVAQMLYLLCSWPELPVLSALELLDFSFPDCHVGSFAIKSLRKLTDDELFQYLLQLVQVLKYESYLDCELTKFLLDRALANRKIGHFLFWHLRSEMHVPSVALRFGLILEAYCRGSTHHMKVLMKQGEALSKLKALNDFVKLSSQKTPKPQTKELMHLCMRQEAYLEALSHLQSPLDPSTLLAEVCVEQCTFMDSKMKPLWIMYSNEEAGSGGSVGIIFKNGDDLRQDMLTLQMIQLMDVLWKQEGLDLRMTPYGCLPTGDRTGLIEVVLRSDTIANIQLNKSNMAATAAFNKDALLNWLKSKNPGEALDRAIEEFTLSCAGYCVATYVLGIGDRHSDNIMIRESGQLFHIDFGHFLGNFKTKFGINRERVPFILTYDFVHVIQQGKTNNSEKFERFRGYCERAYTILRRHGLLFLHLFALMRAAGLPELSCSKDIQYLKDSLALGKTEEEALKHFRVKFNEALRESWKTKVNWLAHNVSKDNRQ
T3 sequence (P27986 whole entry partner): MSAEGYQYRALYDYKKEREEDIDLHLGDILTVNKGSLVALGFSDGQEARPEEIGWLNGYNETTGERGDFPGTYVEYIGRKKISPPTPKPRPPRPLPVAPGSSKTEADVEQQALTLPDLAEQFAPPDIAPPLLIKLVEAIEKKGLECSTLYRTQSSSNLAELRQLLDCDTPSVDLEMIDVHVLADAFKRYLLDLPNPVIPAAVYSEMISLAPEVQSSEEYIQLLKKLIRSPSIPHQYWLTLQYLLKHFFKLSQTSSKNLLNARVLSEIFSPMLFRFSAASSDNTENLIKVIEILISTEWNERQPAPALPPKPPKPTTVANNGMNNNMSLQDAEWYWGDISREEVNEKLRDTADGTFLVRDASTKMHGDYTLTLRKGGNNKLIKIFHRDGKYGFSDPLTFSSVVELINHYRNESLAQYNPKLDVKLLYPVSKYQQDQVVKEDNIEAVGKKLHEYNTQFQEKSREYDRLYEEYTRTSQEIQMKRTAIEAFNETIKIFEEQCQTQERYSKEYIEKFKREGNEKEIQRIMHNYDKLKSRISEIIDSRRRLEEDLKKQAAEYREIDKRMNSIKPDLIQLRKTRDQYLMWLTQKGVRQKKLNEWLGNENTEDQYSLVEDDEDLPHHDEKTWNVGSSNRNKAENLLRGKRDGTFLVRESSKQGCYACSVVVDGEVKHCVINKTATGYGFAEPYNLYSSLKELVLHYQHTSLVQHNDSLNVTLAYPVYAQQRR
Kind of experiment: Lineweaver–Burk plot, inhibition mode against PI3Kδ. It is filed as biochemical. Conditions: ATP 5-100 μM; 37 at 5, 10, 20 nM. How it is done:
Figure 6 Inhibition mode of 37 against PI3Kδ isoform. Lineweaver–Burk plot, 1/v versus 1/[ATP]. The inhibition assay was performed by using varying concentrations of ATP (5, 10, 25, 50, and 100 μM) and fixed concentrations of PI3Kδ recombinant protein (2.4 μg mL^−1) and lipids (1 mg mL^−1 PI/PS lipid micelles mixture) in the presence or absence of different concentrations of 37 (5, 10, and 20 nM).
Lineweaver–Burk plot: The linear phase of the kinetic reaction was defined with 2.4 μg mL^−1 of PI3Kδ in a 20 min reaction time. In the presence of increasing concentrations of 37 (5, 10 and 20 nM), the PI3K lipid kinase activity (for the assay method see “In vitro selection, lipid kinase assay” in the Experimental Section) was assayed at various concentrations of ATP (5, 10, 25, 50, and 100 μM) and in the presence of 0.5 mg mL^−1 lipid micelles (1:1 phosphatidylinositol/phosphatidylserine). A Lineweaver–Burk plot was obtained by plotting 1/v, for which v represents pmol min^−1 of ADP produced in the reaction measured with the ADP‐Glo Kinase Assay kit from Promega (#V9102) versus 1/[ATP] (the inverse of the ATP concentration). The minus‐enzyme control was obtained by incubating phosphatidylinositol in the absence of PI3Kδ.

The mark [2] stands for this setting: Table 2, mean of at least three determinations, 95 % confidence intervals.

T1 sequence (P48736 whole entry): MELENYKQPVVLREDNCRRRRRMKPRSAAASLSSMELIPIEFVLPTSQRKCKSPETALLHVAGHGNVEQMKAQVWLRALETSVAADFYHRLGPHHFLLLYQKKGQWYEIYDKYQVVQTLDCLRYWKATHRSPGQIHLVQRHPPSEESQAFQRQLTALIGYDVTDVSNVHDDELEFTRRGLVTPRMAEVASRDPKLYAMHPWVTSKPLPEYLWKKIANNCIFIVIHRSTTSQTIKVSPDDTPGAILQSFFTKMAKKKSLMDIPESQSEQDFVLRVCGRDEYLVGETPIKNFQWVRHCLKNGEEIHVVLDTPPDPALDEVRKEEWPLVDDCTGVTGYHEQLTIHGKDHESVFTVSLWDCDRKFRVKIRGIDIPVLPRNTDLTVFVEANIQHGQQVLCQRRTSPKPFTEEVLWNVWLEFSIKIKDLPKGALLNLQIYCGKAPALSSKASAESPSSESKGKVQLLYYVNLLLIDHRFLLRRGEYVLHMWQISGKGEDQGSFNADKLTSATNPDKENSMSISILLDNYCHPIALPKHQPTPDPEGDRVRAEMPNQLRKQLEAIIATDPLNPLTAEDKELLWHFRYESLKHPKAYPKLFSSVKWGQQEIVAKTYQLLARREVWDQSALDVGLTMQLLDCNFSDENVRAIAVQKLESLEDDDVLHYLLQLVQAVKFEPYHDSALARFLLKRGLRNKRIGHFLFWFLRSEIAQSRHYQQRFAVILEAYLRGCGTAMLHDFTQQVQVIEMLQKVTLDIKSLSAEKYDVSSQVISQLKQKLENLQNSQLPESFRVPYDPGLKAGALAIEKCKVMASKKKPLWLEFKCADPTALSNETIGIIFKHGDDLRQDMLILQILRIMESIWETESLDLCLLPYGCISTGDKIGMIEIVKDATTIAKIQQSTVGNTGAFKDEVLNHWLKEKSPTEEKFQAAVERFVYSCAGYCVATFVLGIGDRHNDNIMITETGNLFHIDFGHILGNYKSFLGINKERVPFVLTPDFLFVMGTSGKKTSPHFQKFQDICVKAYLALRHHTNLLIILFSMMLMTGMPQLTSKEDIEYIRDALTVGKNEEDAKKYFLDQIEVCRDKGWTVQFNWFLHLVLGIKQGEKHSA
T2 sequence (P42338 whole entry): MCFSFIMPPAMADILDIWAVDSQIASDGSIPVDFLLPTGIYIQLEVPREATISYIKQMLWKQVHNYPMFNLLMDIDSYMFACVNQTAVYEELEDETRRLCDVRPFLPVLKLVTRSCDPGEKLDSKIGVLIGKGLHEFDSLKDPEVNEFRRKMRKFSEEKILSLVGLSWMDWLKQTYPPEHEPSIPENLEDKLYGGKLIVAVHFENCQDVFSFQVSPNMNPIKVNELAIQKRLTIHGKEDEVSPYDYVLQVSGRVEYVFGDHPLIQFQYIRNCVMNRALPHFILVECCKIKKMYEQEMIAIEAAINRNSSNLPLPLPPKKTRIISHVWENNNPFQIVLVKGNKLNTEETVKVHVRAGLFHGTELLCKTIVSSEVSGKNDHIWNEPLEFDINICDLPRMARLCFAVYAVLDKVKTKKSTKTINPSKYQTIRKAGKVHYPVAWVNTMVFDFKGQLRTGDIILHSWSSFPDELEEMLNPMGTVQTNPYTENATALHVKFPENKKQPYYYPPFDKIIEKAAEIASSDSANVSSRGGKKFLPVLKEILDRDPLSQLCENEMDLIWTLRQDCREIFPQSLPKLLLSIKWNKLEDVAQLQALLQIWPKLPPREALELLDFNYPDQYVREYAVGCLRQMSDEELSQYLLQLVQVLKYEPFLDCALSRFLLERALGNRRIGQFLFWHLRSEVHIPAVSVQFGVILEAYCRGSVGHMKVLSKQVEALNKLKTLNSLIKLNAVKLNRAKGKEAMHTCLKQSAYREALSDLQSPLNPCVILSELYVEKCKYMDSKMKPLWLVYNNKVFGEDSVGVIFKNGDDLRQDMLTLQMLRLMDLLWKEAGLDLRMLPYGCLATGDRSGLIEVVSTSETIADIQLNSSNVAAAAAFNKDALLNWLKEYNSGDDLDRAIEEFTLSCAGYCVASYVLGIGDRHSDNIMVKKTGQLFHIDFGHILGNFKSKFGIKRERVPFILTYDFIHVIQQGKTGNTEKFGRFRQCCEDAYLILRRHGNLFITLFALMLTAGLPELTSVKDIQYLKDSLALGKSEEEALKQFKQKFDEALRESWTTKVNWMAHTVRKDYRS
T2 sequence (P27986 whole entry partner): as the sequence (P27986 whole entry partner) above

As for `COC(=O)c1cccc(Cn2cc(-c3cccc4c(=O)cc(N5CCOCC5)[nH]c34)nn2)c1` [Compound 64, Methyl 3‐{[4‐(2‐morpholino‐4‐oxo‐1,4‐dihydroquinolin‐8‐yl)‐1H‐1,2,3‐triazol‐1‐yl]methyl}benzoate], in the experiment on PC3 cells, the “effect on cell cycle” value is “induce cell‐cycle arrest”.

Regarding `O=C(O)c1cccc(Cn2cc(-c3cccc4c(=O)cc(N5CCOCC5)[nH]c34)nn2)c1` [Compound 37, 3‐{[4‐(2‐Morpholino‐4‐oxo‐1,4‐dihydroquinolin‐8‐yl)‐1H‐1,2,3‐triazol‐1‐yl]methyl}benzoic acid], the IC50 came out at 186 ± 43 nM at hPI3Kγ (PIK3CG) (setting [2]) and 59 ± 15 nM in experiment [1] (setting [2]). Also, the inhibition at 1 µM at hPI3Kγ (PIK3CG) (determined at 1 μM, at least triplicate, read-out: Inhibitory activity, PI3K isoform γ) is above 50%; in experiment [1] (determined at 1 μM, at least triplicate, read-out: Inhibitory activity, PI3K isoform β), above 50%. The “inhibition mode against PI3Kδ” value on PI3Kδ is recorded as “ATP‐competitive inhibitor”.
